Assay results from PMC9616048, “Thermal proteome profiling reveals Haemonchus orphan protein HCO_011565 as a target of the nematocidal small molecule UMW-868” (Frontiers in Pharmacology, 2022).

Columns and labels:
[1] = system: exsheathed third-stage larvae (xL3s) of H. contortus; experiment: High throughput screen, xL3 motility (infrared light beam-interference); format: cell-based; settings: Haemonchus contortus, 90 h, read-out: Motility reduction at 90 h (%)
Protocol: An established platform was used for compound screening ([Taki et al., 2021a]). Using a semi-automated liquid handling robot (VIAFLO ASSIST PLUS, Integra Biosciences), compounds were individually diluted to […] in LB* containing 0.2% (v/v) DMSO and then dispensed in 20 µl into the wells of sterile 384-well flat bottom microtitre plates (cat. no. 3680; Corning); 320 compounds were arrayed on each plate, with 16 wells being negative controls (with LB* + 0.2% DMSO) and four wells containing each monepantel (Zolvix; Elanco), moxidectin (Cydectin; Virbac), monepantel + abamectin (Zolvix Plus; Elanco) and compound MIPS-0018666 (abbreviated here as M-666) ([Le et al., 2018]) as positive controls (20 µM). Following the dilution and dispensing of compounds into plates, 80 H. contortus xL3s in 20 μl of LB* were transferred to individual wells; after this step, the final concentrations were 20 µM of test- or positive-control compound, and 0.2% of DMSO. During dispensing, xL3s were maintained in a homogenous suspension using a constant stream of bubbles produced employing an aquarium pump (H2Pro). Plates containing H. contortus xL3s were incubated at 38 °C, 10% (v/v) CO2 and >90% relative humidity.
After 90 h of incubation with compounds (20 μM), H. contortus xL3s motility was measured for 15 min in individual wells of each plate by infrared light beam-interference ([Simonetta and Golombek, 2007]) using a WMicroTracker ONE instrument (Phylumtech). Raw data captured were normalised against measurements obtained for the positive (monepantel) and negative (LB* + 0.2% DMSO) controls to remove plate-to-plate variation by calculating the percentage of motility using the program GraphPad Prism (v.9.1.2; GraphPad Software). A compound was considered active (“hit”) if it reduced larval motility by ≥ 70%. To continually assess the performance of the screening assay, the Z′-factor ([Zhang et al., 1999]) was calculated (using data for the DMSO and the M-666 controls) for individual plates (n = 43) and was consistently ≥0.7; reliable assays achieve a Z′-factor of between 0.5 and 1. The signal to background (S/B) ratio (for the same controls) ([Sui and Wu, 2007]) was consistently >200.

[2] = Cellular toxicity in HepG2 cells (crystal violet); format: cell-based, human; settings: human, HepG2 human hepatoma cells; HepG2, 48 h; read-out: Cytotoxicity (48 h) CC50
Protocol: (§1) The toxicities of compounds on cell and mitochondria were assessed to estimate their half-maximal cytotoxic concentrations (CC50) and half-maximal mitotoxic concentrations (MC50), respectively. HepG2 human hepatoma cells were seeded into wells of a 96-well plate at a density of 5.5 × 10^4 cells per well in 80 µl of Dulbecco’s modified eagle medium (DMEM; with GlutaMax™ cat. no. 10566016 or 4 mM L-glutamine cat. no. 11966025; Thermo Fisher Scientific), supplemented with 25 mM D-glucose (cytotoxicity) or D-galactose (mitotoxicity), 10% (v/v) inactivated foetal bovine serum (iFBS), 100 IU/ml of penicillin, 100 μg/ml of streptomycin and 0.25 μg/ml of amphotericin B (designated DMEM*). Cells were allowed to adhere for 16 h at 37°C and 5% (v/v) CO2 at > 90% relative humidity, then, incubated for 48 h with individual, serially-diluted compounds (two-fold serial dilution in DMEM*; […]) in a final volume of 100 µl. For the assessment of toxicity on mitochondria, cells were starved of serum (DMEM* without iFBS) for 4 h prior to the 48 h-incubation with compounds ([Swiss and Will, 2011]; [Kamalian et al., 2015]). Two positive control compounds, doxorubicin (cytotoxic control) and M-666 (mitotoxic control) were each added to three individual wells in each 96-well plate at a single concentration of 10 µM. DMEM* + 0.25% (v/v) DMSO was added to 12 wells in each plate as negative controls. Monepantel and moxidectin were also serially diluted — prepared in the same manner as test compounds — and used as (“non-toxic”) reference compounds. After 48 h of incubation, cell viability was determined by the crystal violet staining method ([Śliwka et al., 2016]). The absorbance (595 nm) of treated cells was normalised with reference to the negative control (100% viability). To determine the CC50 and MC50 values, compound concentrations were log10-transformed, baseline-corrected using a respective positive control (doxorubicin or M-666) and fitted using a variable slope four-parameter equation with a least squares (ordinary) fit model using GraphPad Prism software (v.9.1.2). Compounds and controls were tested in triplicate.

[3] = system: HepG2 human hepatoma cells; experiment: Cellular toxicity in HepG2 cells (crystal violet); format: cell-based; settings: HepG2 cells, concentrations of up to 100 µM
Protocol: as §1

[4] = system: mitochondria of HepG2 human hepatoma cells; experiment: Mitochondrial toxicity in HepG2 cells (galactose medium); format: cell-based; settings: HepG2 mitochondria, concentrations of up to 100 µM
Protocol: as §1

He. polygyrus in mice = experiment: In vivo activity against He. polygyrus in mice
Protocol: Candidate compound(s) were tested for their effect on other nematode species (He. polygyrus and A. ceylanicum) in infected rodents.
For He. polygyrus, four NMRI mice (3 weeks old; female) were infected orally with 88 He. polygyrus L3s, and immunosuppressed with 0.25 mg/ml dexamethasone (Sigma-Aldrich), in the drinking water, until 2 days prior to treatment ([Mes et al., 2007]). For A. ceylanicum, four Syrian golden hamsters (3 weeks old; male) were infected orally with 300 L3s without immunosuppression ([Tritten et al., 2012]). […] Four each of untreated mice and hamsters served as placebo controls. Six to 7 days post-treatment with the compound, all animals were euthanised by CO2 (hamsters being initially narcotised using isoflurane), and the intestine was dissected. The live adult worms were collected and counted to calculate the worm burden reductions and worm expulsion rates. The worm burden reduction was calculated using the mean number of live worms for the treated group and establishing the differences, in a percentage, with reference to the untreated control group.

[5] = mouse, He. polygyrus, 200 mg/kg single oral dose

Structure (SMILES): CCCc1ccc(-c2nc(-c3cccs3)no2)cc1 [UMW-868, 5-(4-propylphenyl)-3-(2-thienyl)-1,2,4-oxadiazole]
- inhibition at 20 µM [1]: 78.4%
- CC50 at 48 h [2]: > 50 µM
- cytotoxicity (in words) [3]: did not display any appreciable cytotoxicity
- mitotoxicity (in words) [4]: did not display any appreciable cytotoxicity or mitotoxicity
- acute toxicity and pathological changes in treated animals (He. polygyrus in mice; mice, single oral dose, post-mortem examination): neither evidence of acute toxicity
- Mean no. of worms (SD) (He. polygyrus in mice; [5]): 12.0 (3.5)
- Reduction in infection intensity (%) (He. polygyrus in mice; [5]): 47%
